Assay results reported in US20240197927A1, “COMBINATION COMPRISING A NEUROTENSIN RECEPTOR BINDING COMPOUND, GEMCITABINE AND NAB-PACLITAXEL” (Fusion Pharmaceuticals Inc., priority 2021, published 2024).

Columns and labels:
metastatic PDAC [1] = settings: patients with metastatic PDAC, first-line; p<0.001; cited from earlier work
metastatic PDAC [2] = settings: patients with metastatic PDAC; p<0.001; cited from earlier work
[3] = target: neurotensin receptor 2 (NTR2) (Homo sapiens, UniProt O95665); settings: unlike NTR1; cited from earlier work
Sequence of neurotensin receptor 2 (NTR2) (O95665 whole entry, species assumed): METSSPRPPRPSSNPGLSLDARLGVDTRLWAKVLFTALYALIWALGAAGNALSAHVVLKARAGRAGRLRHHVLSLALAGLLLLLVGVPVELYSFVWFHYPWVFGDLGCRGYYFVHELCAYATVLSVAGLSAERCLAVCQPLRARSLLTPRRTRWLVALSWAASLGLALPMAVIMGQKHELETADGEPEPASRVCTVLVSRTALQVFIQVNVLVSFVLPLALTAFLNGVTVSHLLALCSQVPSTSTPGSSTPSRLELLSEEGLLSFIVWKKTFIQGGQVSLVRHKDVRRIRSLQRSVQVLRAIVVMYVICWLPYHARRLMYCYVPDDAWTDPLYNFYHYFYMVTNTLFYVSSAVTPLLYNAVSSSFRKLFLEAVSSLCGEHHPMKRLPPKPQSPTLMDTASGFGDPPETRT

[4] = test system: subcutaneous HT-29 tumors; assay: Efficacy study on mice bearing subcutaneous HT-29 tumors (tumor volume); type: in vivo
Protocol: The HT-29 cell line was established from the primary tumor of a patient with colon adenocarcinoma (Fogh J et al., J. Natl. Cancer Inst. 1977 Jul. 59(1): 221-26).
(§1) Tumor cells were grown as monolayer at 37° C. in a humidified atmosphere (5% CO2, 95% air). The culture medium was RPMI 1640 containing 2 mM L-glutamine supplemented with 10% fetal bovine serum. For experimental use, tumor cells were detached from the culture flask using accutase and neutralized by the addition of complete culture medium. The cells were counted, and viability exceeded 85% as assessed by 0.25% trypan blue exclusion assay. Two frozen pellets of HT29 tumor cells were prepared: one frozen cell pellet prepared during the in-vitro cell culture, and one frozen cell pellet prepared using the cell suspension used for tumor induction in mice.
Healthy female Swiss Nude mice (Crl:NU(Ico)-Foxn1nu), 7 weeks old at reception, were obtained from Charles River.
Tumors were induced by subcutaneous injection of 1×10^7 HT29 cells in 200 μL of RPMI 1640 medium containing matrigel (50:50, v:v, ref: 356237, BD Biosciences, France) into the right flank (in the axis of the heart) of 160 animals. HT29 tumor cell implantation was performed 24 hours after a whole-body irradiation with a gamma source (2 Gy (Nude mice), 60Co, BioMep, France). The day of tumor induction was considered as the day −11 (D-11). […]

[5] = test system: subcutaneous AsPC1 tumors; assay: Efficacy study on mice bearing subcutaneous AsPC-1 tumors (tumor volume); type: in vivo
Protocol: The AsPC 1 cell line was isolated from a metastatic site (ascites) from a patient (Chen W H. et al., In Vitro. 1982 Jan; 18(1):24-34).
as §1, with “mice” for “mice.”
Healthy female Swiss Nude mice (Crl:NU(Ico)-Foxn1^nu), 6 weeks old at reception, were obtained from Charles River.
Tumors were induced by subcutaneous injection of 1×10^7 AsPC 1 cells in 200 μL of RPMI 1640 medium containing matrigel (50:50, v:v, ref: 356237, BD Biosciences, France) into the right flank (in the axis of the heart) of 150 animals. AsPC 1 tumor cell implantation was performed 72 hours after whole-body irradiation with a gamma source (2 Gy (Nude mice), 60Co, BioMep, France).
Animals were randomized by individual tumor volume when tumors reach a mean volume of 150-200 mm3. […]

[6] = Toxicity: weight loss of treated mice; type: in vivo; settings: AsPC-1 study mice; combination Groups 2E, 5E, 6E; Gemcitabine/Abraxane Group 3E; ^177Lu-IPN01087 Groups 4E, 7E
Protocol: ^177Lu-IPN01087 and the reference substances were administered by intravenous injection (IV) into the caudal vein via a catheter. The recommended pH formulation for IV administration is pH 4.5-8.0. […]

[7] = in combination with gemcitabine and nab-paclitaxel chemotherapy regimen

For Nc1ccn([C@@H]2O[C@H](CO)[C@@H](O)C2(F)F)c(=O)n1 [gemcitabine], the “overall response rate (ORR)” value (metastatic PDAC [1]) is listed as 7%, the “overall survival (OS)” value (metastatic PDAC [1]) is listed as 6.7 months and the “progression-free survival (PFS)” value (metastatic PDAC [1]) is listed as 3.7 months. The ORR (metastatic PDAC [2]) was 9.4%, the “median OS” value (metastatic PDAC [2]) was 6.8 months and the “median PFS” value (metastatic PDAC [2]) was 3.3 months.
For C[C@@H]1CN([C@H]2CC[C@](C#N)(c3ccc(F)cc3)CC2)CC[C@]1(C(=O)O)c1ccccc1 [levocabastine], the “affinity for NTR2” value [3] is listed as “high affinity”.
For FOLFIRINOX, the ORR (metastatic PDAC [2]) is listed as 31.6%, the “median OS” value (metastatic PDAC [2]) is listed as 11.1 months and the “median PFS” value (metastatic PDAC [2]) is listed as 6.4 months.
In the case of “^177Lu-zalsenertant tetraxetan [^177Lu-IPN01087]”, the “overall effect in the HT-29 colon cancer model compared to chemotherapy or radiotherapy regimens alone” value [4, 7] was “improved tumor growth control”, the “HT-29 tumor growth, effect as compared to the vehicles” value ([4]; single treatments, FIG. 2: Group 3 (GEM-ABX), Group 4 (^177Lu-IPN01087 @17MBq), IV) was “inhibitory effect on tumor growth” and the “overall effect in the AsPC-1 pancreatic cancer model compared to chemotherapy or radiotherapy regimens alone” value [5, 7] was “prolonged regression”. For the same compound, the “AsPC-1 tumor growth, effect compared to the vehicles” value ([5]; treatment alone, FIG. 7: Group 3E (GEM-ABX), Group 4E (^177Lu-IPN01087 @19MBq), IV) was “antitumor effect” and the mean weight losses [6] was −4% to −10%.
